Source: patent US10815244B2, “Isoidide derivatives and methods of making and using same” (Rutgers, the State University of New Jersey, priority 2015, dated 2020)

Legend:
[1] = tested on: IL-1β (LPS-stimulated PBMCs); experiment: IL-1β expression in LPS-stimulated PBMCs in the presence of MIF inhibitors (ELISA); type: cell-based; settings: Homo sapiens, PBMC, LPS 10 ng/ml and LPS+MIF, ELISA of supernatant
Protocol: (§1) Example QQ: Macrophage Migration Inhibitory Factor (MIF) as a Drug Target Assay Conditions
(§2) a) PBMC Isolation: • Heparinized blood (10 ml) was diluted with equal volume of phosphate buffer saline (PBS). To the Ficoll solution (5 ml) add 5 ml of blood:PBS mixture and centrifuge at 1600 rpm for 30 minutes. Take the buffy coat and wash with PBS at 1200 rpm for 5 minutes (twice). After two wash with PBS, the PBMCs were washed with RPMI medium. The PBMC were counted and plated in 96 well plates (1×10^6 cells/well).
(§3) b) Expression of TNF-α and […] in PBMCs in the Presence of MIF Inhibitors: • After overnight incubation, the cells were treated with different concentration of MIF inhibitors. After 6 hr, cells were treated with LPS (10 ng/ml) and LPS+MIF combination (10 ng/ml) and further incubated for overnight. PBMCs treated with 10 ng/ml of LPS and MIF in the presence of different concentrations of test compounds. After the incubation period, the supernatant were collected and human TNF-α and IL-1β were determined using the ELISA kits (R&D Systems).

[2] = tested on: TNF-α (LPS-stimulated PBMCs); experiment: TNF-α expression in LPS-stimulated PBMCs in the presence of MIF inhibitors (ELISA); type: cell-based; settings: Homo sapiens, PBMC, LPS 10 ng/ml and LPS+MIF, ELISA of supernatant
Protocol: as §1, §2, §3

EGFR kinase = EGFR kinase (Homo sapiens (Human), UniProt P00533); experiment: EGFR kinase activity, luminescent ATP/ADP detection assay; type: biochemical; settings: purified EGFR kinase, 10 min incubation, luminescence ADP detection
Protocol: Example RR: EGFR as a Drug Target Assay Conditions
The IC50s of the compounds on EGFR activity were determined using the Luminescent ATP/ADP detection assay system. Briefly, the assay method measures ADP formed from EGFR kinase activity using luminescence derived from ATP-Luciferase detection system. Purified EGFR kinase was incubated with different concentrations of test compound in the kinase reaction buffer for 10 min. The reaction was stopped by depleting the unused ATP in the kinase reaction buffer using the depletion buffer for 40 min. The levels of ADP generated during the kinase reaction was detected by measuring the luminescence using the Luciferase system.

Chain of EGFR kinase (P00533 25-1210): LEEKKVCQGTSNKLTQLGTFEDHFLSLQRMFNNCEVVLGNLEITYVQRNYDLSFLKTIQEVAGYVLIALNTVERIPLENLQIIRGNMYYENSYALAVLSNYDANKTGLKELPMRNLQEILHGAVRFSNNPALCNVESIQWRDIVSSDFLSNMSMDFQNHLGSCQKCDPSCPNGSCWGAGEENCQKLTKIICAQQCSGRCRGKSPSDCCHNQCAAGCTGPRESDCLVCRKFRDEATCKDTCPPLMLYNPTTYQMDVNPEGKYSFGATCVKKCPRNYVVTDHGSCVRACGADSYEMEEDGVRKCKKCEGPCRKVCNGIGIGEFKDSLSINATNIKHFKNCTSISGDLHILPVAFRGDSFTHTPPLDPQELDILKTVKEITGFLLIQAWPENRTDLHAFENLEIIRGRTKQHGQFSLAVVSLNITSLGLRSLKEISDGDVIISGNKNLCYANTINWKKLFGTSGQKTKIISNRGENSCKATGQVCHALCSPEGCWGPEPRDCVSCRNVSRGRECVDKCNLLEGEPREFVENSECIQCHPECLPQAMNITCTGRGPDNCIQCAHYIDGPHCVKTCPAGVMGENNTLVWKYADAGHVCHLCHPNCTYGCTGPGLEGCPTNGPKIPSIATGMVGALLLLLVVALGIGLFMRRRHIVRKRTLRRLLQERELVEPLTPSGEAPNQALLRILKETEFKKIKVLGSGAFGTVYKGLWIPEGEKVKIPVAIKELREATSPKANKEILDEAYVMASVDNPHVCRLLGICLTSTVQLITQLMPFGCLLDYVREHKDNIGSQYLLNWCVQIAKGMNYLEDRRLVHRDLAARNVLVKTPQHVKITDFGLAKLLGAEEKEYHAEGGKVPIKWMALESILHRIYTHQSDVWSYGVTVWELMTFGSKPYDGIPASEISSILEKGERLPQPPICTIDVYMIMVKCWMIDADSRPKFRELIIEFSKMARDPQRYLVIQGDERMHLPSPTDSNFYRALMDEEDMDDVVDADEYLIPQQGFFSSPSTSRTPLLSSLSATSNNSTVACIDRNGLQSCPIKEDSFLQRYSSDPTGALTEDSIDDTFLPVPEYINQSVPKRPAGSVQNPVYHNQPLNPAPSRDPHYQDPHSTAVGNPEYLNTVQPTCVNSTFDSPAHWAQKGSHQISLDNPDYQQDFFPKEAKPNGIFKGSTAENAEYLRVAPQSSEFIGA

Row | IC50 (EGFR kinase) | Structure (SMILES) | IC50 [1] | IC50 [2]
1 |  | CCOC(=O)c1c(O[C@H]2CO[C@H]3[C@@H]2OC[C@@H]3O)c2ccccc2n(CC)c1=O [Example A, ethyl 4-[[(3S,3aR,6S,6aR)-3-hydroxy-2,3,3a,5,6,6a-hexahydrofuro[3,2-b]furan-6-yl]oxy]-1-ethyl-2-oxo-1,2-dihydroquinoline-3-carboxylate] | > 1000 nM | > 1000 nM
2 | > 100 nM | COc1cc2ncnc(Nc3ccc(O[C@H]4CO[C@H]5[C@@H]4OC[C@@H]5OCc4ccccc4)c(Cl)c3)c2cc1OC [Example AA, N-[4-[[(3S,3aR,6S,6aR)-3-benzyloxy-2,3,3a,5,6,6a-hexahydrofuro[3,2-b]furan-6-yl]oxy]-3-chloro-phenyl]-6,7-dimethoxy-quinazolin-4-amine] |  | 
3 |  | CCOC(=O)c1c(O[C@H]2CO[C@H]3[C@@H]2OC[C@@H]3OC(C)=O)c2ccccc2n(CC)c1=O [Example B, ethyl 4-[[(3S,3aR,6S,6aR)-6-acetoxy-2,3,3a,5,6,6a-hexahydrofuro[3,2-b]furan-3-yl]oxy]-1-ethyl-2-oxo-1,2-dihydroquinoline-3-carboxylate] | > 10000 nM | > 10000 nM
4 | > 500 nM | COc1cc2ncnc(Nc3ccc(O[C@H]4CO[C@H]5[C@@H]4OC[C@@H]5OC(C)=O)c(Cl)c3)c2cc1OC [Example BB, [(3S,3aR,6S,6aR)-3-[2-chloro-4-[(6,7-dimethoxyquinazolin-4-yl)amino]phenoxy]-2,3,3a,5,6,6a-hexahydrofuro[3,2-b]furan-6-yl] acetate] |  | 
5 |  | CCOC(=O)c1c(O[C@H]2CO[C@H]3[C@@H]2OC[C@@H]3OC(=O)CCl)c2ccccc2n(CC)c1=O [Example C, ethyl 4-[[(3S,3aR,6S,6aR)-6-(2-chloroacetyl)oxy-2,3,3a,5,6,6a-hexahydrofuro[3,2-b]furan-3-yl]oxy]-1-ethyl-2-oxo-1,2-dihydroquinoline-3-carboxylate] | > 500 nM | > 500 nM
6 | > 500 nM | CC(=O)O[C@H]1CO[C@H]2[C@@H]1OC[C@@H]2Oc1ccc(Nc2ncnc3ccsc23)cc1Cl [Example CC, [(3S,3aR,6S,6aR)-3-[2-chloro-4-(thieno[3,2-d]pyrimidin-4-ylamino)phenoxy]-2,3,3a,5,6,6a-hexahydrofuro[3,2-b]furan-6-yl] acetate] |  | 
7 |  | CCOC(=O)c1c(O[C@H]2CO[C@@H]3C=CO[C@H]23)c2ccccc2n(CC)c1=O [Example D, ethyl 4-[[(3S,3aS,6aR)-2,3,3a,6a-tetrahydrofuro[3,2-b]furan-3-yl]oxy]-1-ethyl-2-oxo-1,2-dihydroquinoline-3-carboxylate] | > 10000 nM | > 10000 nM
8 | > 100 nM | COc1cc2ncnc(Nc3ccc(O[C@H]4CO[C@H]5[C@@H]4OC[C@@H]5OC(=O)c4ccccc4)c(Cl)c3)c2cc1OC [Example DD, [(3S,3aR,6S,6aR)-3-[2-chloro-4-[(6,7-dimethoxyquinazolin-4-yl)amino]phenoxy]-2,3,3a,5,6,6a-hexahydrofuro[3,2-b]furan-6-yl] benzoate] |  | 
9 |  | CCOC(=O)c1c(O[C@H]2CO[C@H]3[C@@H]2OC[C@@H]3O)c2ccccc2n(Cc2ccccc2)c1=O [Example E, ethyl 4-[[(3S,3aR,6S,6aR)-3-hydroxy-2,3,3a,5,6,6a-hexahydrofuro[3,2-b]furan-6-yl]oxy]-1-benzyl-2-oxo-1,2-dihydroquinoline-3-carboxylate] | > 500 nM | > 500 nM
10 |  | CCOC(=O)c1c(O[C@H]2CO[C@H]3[C@@H]2OC[C@@H]3OC(C)=O)c2ccccc2n(Cc2ccccc2)c1=O [Example F, ethyl 4-[[(3S,3aR,6S,6aR)-6-acetoxy-2,3,3a,5,6,6a-hexahydrofuro[3,2-b]furan-3-yl]oxy]-1-benzyl-2-oxo-1,2-dihydroquinoline-3-carboxylate] | > 10000 nM | > 10000 nM
11 |  | CCOC(=O)c1c(O[C@H]2CO[C@H]3[C@@H]2OC[C@@H]3OC(=O)CCl)c2ccccc2n(Cc2ccccc2)c1=O [Example G, ethyl 4-[[(3S,3aR,6S,6aR)-6-(2-chloroacetyl)oxy-2,3,3a,5,6,6a-hexahydrofuro[3,2-b]furan-3-yl]oxy]-1-benzyl-2-oxo-1,2-dihydroquinoline-3-carboxylate] | > 100 nM | > 100 nM
12 |  | CCOC(=O)c1c(O[C@H]2CO[C@@H]3C=CO[C@H]23)c2ccccc2n(Cc2ccccc2)c1=O [Example H, ethyl 4-[[(3S,3aS,6aR)-2,3,3a,6a-tetrahydrofuro[3,2-b]furan-3-yl]oxy]-1-benzyl-2-oxo-1,2-dihydroquinoline-3-carboxylate] | > 10000 nM | > 10000 nM
13 |  | CCOC(=O)c1c(O[C@H]2CO[C@H]3[C@@H]2OC[C@@H]3O)c2ccccc2n(Cc2ccc(F)cc2)c1=O [Example I, ethyl 4-[[(3S,3aR,6S,6aR)-3-hydroxy-2,3,3a,5,6,6a-hexahydrofuro[3,2-b]furan-6-yl]oxy]-1-[(4-fluorophenyl)methyl]-2-oxo-1,2-dihydroquinoline-3-carboxylate] | > 500 nM | > 500 nM
14 |  | CCOC(=O)c1c(O[C@H]2CO[C@H]3[C@@H]2OC[C@@H]3OC(=O)CCl)c2ccccc2n(Cc2ccc(F)cc2)c1=O [Example J, ethyl 4-[[(3S,3aR,6S,6aR)-6-(2-chloroacetyl)oxy-2,3,3a,5,6,6a-hexahydrofuro[3,2-b]furan-3-yl]oxy]-1-[(4-fluorophenyl)methyl]-2-oxo-1,2-dihydroquinoline-3-carboxylate] | > 100 nM | > 100 nM
15 |  | N#Cc1c(O[C@H]2CO[C@H]3[C@@H]2OC[C@@H]3O)c2ccccc2n(Cc2ccccc2)c1=O [Example K, 4-[[(3S,3aR,6S,6aR)-3-hydroxy-2,3,3a,5,6,6a-hexahydrofuro[3,2-b]furan-6-yl]oxy]-1-benzyl-2-oxo-1,2-dihydroquinoline-3-carbonitrile] | > 100 nM | > 100 nM
16 |  | CC(=O)O[C@H]1CO[C@H]2[C@@H]1OC[C@@H]2Oc1c(C#N)c(=O)n(Cc2ccccc2)c2ccccc12 [Example L, [(3S,3aR,6S,6aR)-3-[(1-benzyl-3-cyano-2-oxo-4-quinolyl)oxy]-2,3,3a,5,6,6a-hexahydrofuro[3,2-b]furan-6-yl] acetate] | > 1000 nM | > 1000 nM
17 |  | N#Cc1c(O[C@H]2CO[C@H]3[C@@H]2OC[C@@H]3OC(=O)CCl)c2ccccc2n(Cc2ccccc2)c1=O [Example M, [(3S,3aR,6S,6aR)-3-[(1-benzyl-3-cyano-2-oxo-4-quinolyl)oxy]-2,3,3a,5,6,6a-hexahydrofuro[3,2-b]furan-6-yl] 2-chloroacetate] | > 500 nM | > 500 nM
18 |  | N#Cc1c(O[C@H]2CO[C@H]3[C@@H]2OC[C@@H]3O)c2ccccc2n(Cc2ccc(F)cc2)c1=O [Example N, 4-[[(3S,3aR,6S,6aR)-3-hydroxy-2,3,3a,5,6,6a-hexahydrofuro[3,2-b]furan-6-yl]oxy]-1-[(4-fluorophenyl)methyl]-2-oxo-1,2-dihydroquinoline-3-carbonitrile] | > 10000 nM | > 100 nM
19 |  | CC(=O)O[C@H]1CO[C@H]2[C@@H]1OC[C@@H]2Oc1c(C#N)c(=O)n(Cc2ccc(F)cc2)c2ccccc12 [Example O, [(3S,3aR,6S,6aR)-3-[[3-cyano-1-[(4-fluorophenyl)methyl]-2-oxo-4-quinolyl]oxy]-2,3,3a,5,6,6a-hexahydrofuro[3,2-b]furan-6-yl] acetate] | > 10000 nM | > 100 nM
20 |  | N#Cc1c(O[C@H]2CO[C@H]3[C@@H]2OC[C@@H]3OC(=O)c2ccccc2)c2ccccc2n(Cc2ccc(F)cc2)c1=O [Example P, [(3S,3aR,6S,6aR)-3-[[3-cyano-1-[(4-fluorophenyl)methyl]-2-oxo-4-quinolyl]oxy]-2,3,3a,5,6,6a-hexahydrofuro[3,2-b]furan-6-yl] benzoate] | > 10000 nM | > 10000 nM
21 |  | N#Cc1c(O[C@H]2CO[C@H]3[C@@H]2OC[C@@H]3OC(=O)CCl)c2ccccc2n(Cc2ccc(F)cc2)c1=O [Example Q, [(3S,3aR,6S,6aR)-3-[[3-cyano-1-[(4-fluorophenyl)methyl]-2-oxo-4-quinolyl]oxy]-2,3,3a,5,6,6a-hexahydrofuro[3,2-b]furan-6-yl] 2-chloroacetate] | > 100 nM | > 100 nM
22 |  | N#Cc1c(Nc2ccc(O[C@H]3CO[C@H]4[C@@H]3OC[C@@H]4O)c(Cl)c2)c2ccccc2n(Cc2ccccc2)c1=O [Example R, 4-[4-[[(3S,3aR,6S,6aR)-3-hydroxy-2,3,3a,5,6,6a-hexahydrofuro[3,2-b]furan-6-yl]oxy]-3-chloro-anilino]-1-benzyl-2-oxo-1,2-dihydroquinoline-3-carbonitrile] | > 100 nM | > 100 nM
23 |  | CCOC(=O)c1c(Nc2ccc(O[C@H]3CO[C@H]4[C@@H]3OC[C@@H]4O)c(Cl)c2)c2ccccc2n(Cc2ccccc2)c1=O [Example S, ethyl 4-[4-[[(3S,3aR,6S,6aR)-3-hydroxy-2,3,3a,5,6,6a-hexahydrofuro[3,2-b]furan-6-yl]oxy]-3-chloro-anilino]-1-benzyl-2-oxo-1,2-dihydroquinoline-3-carboxylate] | > 500 nM | > 500 nM
